Consider 17 molecules from patent US20190263804A1, “AZABENZIMIDAZOLE DERIVATIVES AS PI3K BETA INHIBITORS” (Janssen Pharmaceutica NV, priority 2016, published 2019).

In experiment [1] the target is T1, PIK3Cα_h (Homo sapiens, UniProt P42336).
T1 construct: purchased DiscoveRx Corporation, San Diego (contract assay service)
The experiment can be described thus: KINOMEscan enzyme binding assay, PIK3Cα. The conditions noted are these: KINOMEscan (DiscoveRx). As for the experimental part: (§1) Enzyme Binding Assays (KINOMEscan®)
(§2) Kinase enzyme binding affinities of compounds disclosed herein were determined using the KINOMEscan technology performed by DiscoveRx Corporation, San Diego, Calif., USA (www.kinomescan.com). Table A reports the obtained Kd values (nM), with the Kd being the inhibitor binding constant (‘n.d.’ means not determined): […]

Experiment [2] has as its target T2, PIK3Cβ_h (Homo sapiens, UniProt P42338).
T2 construct: purchased DiscoveRx Corporation, San Diego (contract assay service)
In words: KINOMEscan enzyme binding assay, PIK3Cβ. Particulars: KINOMEscan (DiscoveRx). As for the experimental part: as §1, §2

Experiment [3] addresses T3, PIK3Cδ_h (Homo sapiens, UniProt O00329).
T3 construct: purchased DiscoveRx Corporation, San Diego (contract assay service)
T3 sequence (O00329 1-1044): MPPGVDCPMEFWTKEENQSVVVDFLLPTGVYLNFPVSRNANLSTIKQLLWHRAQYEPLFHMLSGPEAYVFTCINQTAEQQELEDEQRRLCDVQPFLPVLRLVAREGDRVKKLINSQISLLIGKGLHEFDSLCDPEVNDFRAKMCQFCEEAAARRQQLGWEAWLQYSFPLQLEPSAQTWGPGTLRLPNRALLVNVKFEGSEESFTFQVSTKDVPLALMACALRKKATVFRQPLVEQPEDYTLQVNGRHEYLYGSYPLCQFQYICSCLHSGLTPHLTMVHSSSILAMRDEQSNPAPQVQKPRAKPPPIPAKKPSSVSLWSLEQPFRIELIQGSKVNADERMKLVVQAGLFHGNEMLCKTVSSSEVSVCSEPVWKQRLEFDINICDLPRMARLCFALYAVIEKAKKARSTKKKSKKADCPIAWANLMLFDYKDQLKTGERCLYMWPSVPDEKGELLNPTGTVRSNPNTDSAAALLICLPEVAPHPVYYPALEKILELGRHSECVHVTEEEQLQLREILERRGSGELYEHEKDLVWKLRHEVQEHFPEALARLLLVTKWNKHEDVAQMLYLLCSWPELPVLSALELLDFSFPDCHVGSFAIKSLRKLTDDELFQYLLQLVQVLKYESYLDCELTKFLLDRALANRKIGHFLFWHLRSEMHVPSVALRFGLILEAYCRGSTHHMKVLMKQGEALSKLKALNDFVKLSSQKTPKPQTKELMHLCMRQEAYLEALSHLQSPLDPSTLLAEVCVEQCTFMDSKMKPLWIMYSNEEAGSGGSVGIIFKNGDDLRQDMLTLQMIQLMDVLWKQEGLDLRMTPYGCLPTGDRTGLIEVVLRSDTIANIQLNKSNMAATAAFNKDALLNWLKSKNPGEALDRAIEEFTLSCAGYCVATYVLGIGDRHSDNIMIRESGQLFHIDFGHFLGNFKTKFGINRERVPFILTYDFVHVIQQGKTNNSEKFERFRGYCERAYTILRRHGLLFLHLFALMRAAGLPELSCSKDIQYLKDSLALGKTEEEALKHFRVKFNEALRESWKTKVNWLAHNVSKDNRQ
The experiment can be described thus: KINOMEscan enzyme binding assay, PIK3Cδ. The conditions noted are these: KINOMEscan (DiscoveRx). As for the experimental part:
as §1, §2

For experiment [4], the target named is T4, PIK3Cγ_h (Homo sapiens, UniProt P48736).
T4 construct: purchased DiscoveRx Corporation, San Diego (contract assay service)
T4 sequence (P48736 whole entry): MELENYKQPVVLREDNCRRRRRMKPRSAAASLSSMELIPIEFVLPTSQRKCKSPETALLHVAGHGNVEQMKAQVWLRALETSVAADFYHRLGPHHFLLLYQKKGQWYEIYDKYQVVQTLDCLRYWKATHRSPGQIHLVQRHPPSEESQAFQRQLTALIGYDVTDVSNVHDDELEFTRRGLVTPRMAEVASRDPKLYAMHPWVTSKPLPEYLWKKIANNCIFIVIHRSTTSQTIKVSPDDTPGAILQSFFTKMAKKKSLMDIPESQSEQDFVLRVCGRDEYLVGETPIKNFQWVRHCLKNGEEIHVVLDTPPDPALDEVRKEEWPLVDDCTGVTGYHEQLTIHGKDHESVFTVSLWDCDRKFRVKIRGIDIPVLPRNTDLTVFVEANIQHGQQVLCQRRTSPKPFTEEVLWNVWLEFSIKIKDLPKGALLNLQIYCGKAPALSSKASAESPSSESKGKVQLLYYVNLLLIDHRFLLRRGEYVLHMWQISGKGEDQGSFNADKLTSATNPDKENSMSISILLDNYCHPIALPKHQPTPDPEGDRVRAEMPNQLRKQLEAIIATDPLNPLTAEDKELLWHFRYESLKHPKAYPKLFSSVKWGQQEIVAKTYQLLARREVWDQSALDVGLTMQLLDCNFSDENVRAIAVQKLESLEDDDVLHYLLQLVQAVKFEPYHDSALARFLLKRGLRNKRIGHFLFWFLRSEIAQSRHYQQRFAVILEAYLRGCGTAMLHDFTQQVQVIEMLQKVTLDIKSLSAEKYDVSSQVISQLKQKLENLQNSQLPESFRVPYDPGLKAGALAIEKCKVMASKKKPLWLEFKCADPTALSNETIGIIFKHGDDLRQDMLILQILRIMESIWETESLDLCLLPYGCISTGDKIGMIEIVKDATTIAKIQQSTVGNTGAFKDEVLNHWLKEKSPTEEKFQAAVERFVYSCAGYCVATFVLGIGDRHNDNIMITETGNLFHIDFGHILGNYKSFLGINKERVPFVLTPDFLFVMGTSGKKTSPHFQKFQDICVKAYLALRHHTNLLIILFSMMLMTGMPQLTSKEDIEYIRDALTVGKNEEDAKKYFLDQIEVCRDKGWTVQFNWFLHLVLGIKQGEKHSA
In words: KINOMEscan enzyme binding assay, PIK3Cγ. Particulars: KINOMEscan (DiscoveRx). As for the experimental part:
as §1, §2

For experiment [5], the target named is T5, MTOR_h (Homo sapiens, UniProt P42345).
T5 construct: purchased DiscoveRx Corporation, San Diego (contract assay service)
The experiment can be described thus: KINOMEscan enzyme binding assay, MTOR. The conditions noted are these: KINOMEscan (DiscoveRx). As for the experimental part: as §1, §2

The subject of experiment [6] is phosphorylation of Akt (Ser473) in PC-3 cells. The experiment can be described thus: Cellular assay: phospho-Akt (Ser473) MSD ELISA in PC-3 cells. Type of experiment: cell-based. Particulars: Homo sapiens, 1 h, 60 min compound incubation, read-out: IC50 pAkt_S473. As for the experimental part:
(§3) Cellular activity of PI3K(3 inhibitors was determined by quantifying the phosphorylation of Akt in PC-3 cells. Akt phosphorylated at Ser473 and Thr308 were measured using an enzyme-linked immunosorbent assay (ELISA; Meso Scale Discovery (MSD), Gaithersburg, Md.) and specific primary antibodies from MSD.
(§4) On day 1, PC3 cells (ATCC # […]) were seeded into PerkinElmer MW96 plates at 25.000 cells per well, in 75 μl complete culture medium (DMEM high glucose, AQmedia™, D0819, Sigma-Aldrich) containing 10% heat inactivated FCS and incubated at 37° C., 5% CO2 during 24 hours. On day 2, compound or DMSO (0.3%) was added and cells were further incubated for 60 min at 37° C., 5% CO2 in a total volume of 100 μl of medium.
(§5) The phosphoprotein assay was executed according to vendor instructions in the Phospho-Akt (Ser473) Assay Whole Cell Lysate Kit (MSD # K15100D-3) and the Phospho-Akt (Thr308) Assay Whole Cell Lysate Kit (MSD # K151DYD-3) using the lysis, blocking and wash buffer provided.
(§6) Briefly, at the end of the cell treatment period, media were removed by aspiration and adherent cells were lysed in 50 μl ice-cold lysis buffer. MSD plates are supplied pre-coated with capture antibodies for Phospho-Akt (Ser473 and Thr308). After blocking, lysates from tissue culture plates were added and plates were washed. Then, a solution containing the detection antibody (anti-total Akt conjugated with an electrochemiluminescent compound-MSD Sulfo-tag label) was added. The signals were detected using an MSD SECTOR Imager 6000 and are proportional to the phospho-Akt titres.
(§7) Data were processed. The percentage of inhibition was plotted against the log concentration of test compounds, and the sigmoidal log concentration-effect curve of best fit was calculated by nonlinear regression analysis. From these concentration-response curves, the IC50 values were calculated. Five concentrations were used for curve fitting.
In general terms: An ELISA detects its analyte on a solid surface through an enzyme-linked reagent.

Experiment [7] has as its system phosphorylation of Akt (Thr308) in PC-3 cells. In words: Cellular assay: phospho-Akt (Thr308) MSD ELISA in PC-3 cells. Format: cell-based. The conditions noted are these: Homo sapiens, 1 h, 60 min compound incubation, read-out: IC50 pAkt_Thr308. As for the experimental part:
as §3, §4, §5, §6, §7

T2 sequence (P42338 whole entry): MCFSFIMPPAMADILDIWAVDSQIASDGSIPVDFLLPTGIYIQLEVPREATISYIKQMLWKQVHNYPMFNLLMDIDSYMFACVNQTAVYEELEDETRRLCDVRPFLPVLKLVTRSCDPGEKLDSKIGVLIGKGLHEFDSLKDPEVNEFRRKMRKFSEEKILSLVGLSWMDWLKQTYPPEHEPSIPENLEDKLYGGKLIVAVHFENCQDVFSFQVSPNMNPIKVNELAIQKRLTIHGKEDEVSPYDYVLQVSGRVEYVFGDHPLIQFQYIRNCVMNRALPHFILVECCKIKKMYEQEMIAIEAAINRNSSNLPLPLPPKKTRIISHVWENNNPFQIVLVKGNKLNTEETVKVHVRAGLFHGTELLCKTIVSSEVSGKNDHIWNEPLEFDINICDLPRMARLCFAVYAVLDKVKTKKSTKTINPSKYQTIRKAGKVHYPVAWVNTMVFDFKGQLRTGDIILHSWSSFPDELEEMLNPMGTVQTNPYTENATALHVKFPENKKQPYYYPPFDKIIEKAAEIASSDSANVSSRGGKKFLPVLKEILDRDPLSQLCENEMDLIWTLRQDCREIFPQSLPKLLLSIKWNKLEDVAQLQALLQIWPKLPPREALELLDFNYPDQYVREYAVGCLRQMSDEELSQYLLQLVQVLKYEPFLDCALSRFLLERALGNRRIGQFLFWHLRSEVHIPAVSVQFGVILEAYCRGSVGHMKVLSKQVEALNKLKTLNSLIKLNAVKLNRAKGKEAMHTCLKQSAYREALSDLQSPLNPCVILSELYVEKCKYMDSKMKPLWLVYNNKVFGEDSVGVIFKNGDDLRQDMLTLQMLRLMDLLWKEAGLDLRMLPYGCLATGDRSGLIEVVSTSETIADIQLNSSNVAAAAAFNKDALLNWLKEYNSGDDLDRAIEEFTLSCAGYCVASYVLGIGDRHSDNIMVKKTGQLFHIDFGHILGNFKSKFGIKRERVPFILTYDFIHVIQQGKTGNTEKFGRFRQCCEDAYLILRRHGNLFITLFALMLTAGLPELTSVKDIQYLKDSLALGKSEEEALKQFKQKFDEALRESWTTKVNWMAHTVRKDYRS
T1 sequence (P42336 whole entry): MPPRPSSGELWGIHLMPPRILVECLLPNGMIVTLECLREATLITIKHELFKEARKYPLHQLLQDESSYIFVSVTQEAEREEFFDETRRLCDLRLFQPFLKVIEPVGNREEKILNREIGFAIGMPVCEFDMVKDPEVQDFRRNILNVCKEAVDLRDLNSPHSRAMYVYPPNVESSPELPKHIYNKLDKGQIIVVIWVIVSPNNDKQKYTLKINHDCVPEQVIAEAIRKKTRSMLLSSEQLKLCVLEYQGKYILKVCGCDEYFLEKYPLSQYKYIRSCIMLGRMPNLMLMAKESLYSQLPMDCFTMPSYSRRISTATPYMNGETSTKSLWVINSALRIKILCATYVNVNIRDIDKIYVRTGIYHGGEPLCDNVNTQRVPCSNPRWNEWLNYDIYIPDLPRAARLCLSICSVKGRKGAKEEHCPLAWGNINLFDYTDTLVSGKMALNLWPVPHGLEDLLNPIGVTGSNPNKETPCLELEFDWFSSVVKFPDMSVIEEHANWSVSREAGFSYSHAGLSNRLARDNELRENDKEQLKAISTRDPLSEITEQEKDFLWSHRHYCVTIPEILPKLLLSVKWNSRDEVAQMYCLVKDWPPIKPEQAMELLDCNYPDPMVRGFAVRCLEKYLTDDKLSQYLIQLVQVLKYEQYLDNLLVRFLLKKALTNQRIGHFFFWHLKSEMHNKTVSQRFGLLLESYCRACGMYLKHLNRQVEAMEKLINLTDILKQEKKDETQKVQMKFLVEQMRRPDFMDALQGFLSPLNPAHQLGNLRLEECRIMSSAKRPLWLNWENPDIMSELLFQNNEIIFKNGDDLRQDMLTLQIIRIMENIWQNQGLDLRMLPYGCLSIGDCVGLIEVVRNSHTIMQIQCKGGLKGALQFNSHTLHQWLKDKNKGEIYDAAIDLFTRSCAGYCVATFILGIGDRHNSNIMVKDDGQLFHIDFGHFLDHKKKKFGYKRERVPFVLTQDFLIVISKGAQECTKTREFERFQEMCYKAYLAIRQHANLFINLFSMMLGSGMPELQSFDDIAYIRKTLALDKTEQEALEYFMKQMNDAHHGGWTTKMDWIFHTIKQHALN

Turning to `Cc1c(Cl)cccc1Cn1c(C)nc2cnc(N3CCOCC3)cc21` [Compound 1], the Kd (commonly the free concentration of one partner at which half of the binding sites on the other are occupied at equilibrium, for simple one-to-one binding) in experiment [1] is 2100 nM; in experiment [2], 2 nM; in experiment [3], 600 nM; in experiment [4], 9500 nM; in experiment [5], not below 30200 nM. Moreover, the results for the IC50 in experiment [6] and in experiment [7] were 40 nM and 30 nM, respectively.

`Cc1c(Cn2c(C)nc3cnc(N4CCOCC4)cc32)cccc1C(F)(F)F` [Compound 2]: the Kd in experiment [1] was 3700 nM; in experiment [2] it was 2 nM; in experiment [3], 1500 nM; in experiment [4], 22400 nM; in experiment [5] it was more than 30200 nM. Besides, the IC50 (as a rule, the concentration at which inhibition is half-maximal) in experiment [6] was 180 nM; in experiment [7], 430 nM.

Turning to `Cc1c(Cn2c(CN3CC4(CC(O)C4)C3)nc3cnc(N4CCOCC4)cc32)cccc1C(F)(F)F` [Compound 3], the dissociation constant (Kd) in experiment [1] was 1600 nM; in experiment [2], 1 nM; in experiment [3] it was 200 nM; in experiment [4], more than 30200 nM; in experiment [5], more than 30200 nM. The results for the IC50 in experiment [6] and in experiment [7] were 70 nM and 40 nM, respectively.

`Cc1c(Cn2c(C)nc3c(N)nc(C4=CCOCC4)cc32)cccc1C(F)(F)F` [Compound 4]: the Kd in experiment [1] was 17000 nM; in experiment [2] it was 9 nM; in experiment [3], 4300 nM; in experiment [4], more than 30200 nM; in experiment [5] it was more than 30200 nM. Besides, the concentration for half-maximal inhibition (IC50) in experiment [6] is approximately 140 nM; in experiment [7] it was 150 nM.

Regarding `Cc1c(Cl)cccc1Cn1c(CN2CCS(=O)(=O)CC2)nc2cnc(N3CCOCC3)cc21` [Compound 5], the Kd in experiment [1] is 2600 nM; in experiment [2], 4 nM; in experiment [3], 1500 nM; in experiment [4], more than 30200 nM; in experiment [5], more than 30200 nM. The IC50 was approximately 100 nM in experiment [6] and 130 nM in experiment [7].

For `Cc1c(Cn2c(CO)nc3cnc(N4CCOCC4)cc32)cccc1C(F)(F)F` [Compound 6], the Kd in experiment [1] is 2800 nM; in experiment [2], 1 nM; in experiment [3] it was 800 nM; in experiment [4] it was 18200 nM; in experiment [5] it was not below 30200 nM. For the same molecule, the concentration for half-maximal inhibition (IC50) amounted to 50 nM in experiment [6] and 40 nM in experiment [7].

Consider `Cc1c(Cn2c(CN3CC(O)C3)nc3cnc(N4CCOCC4)cc32)cccc1C(F)(F)F` [Compound 7], for which the equilibrium dissociation constant (Kd) is 2200 nM in experiment [1]; 3 nM in experiment [2]; 1100 nM in experiment [3]; more than 30200 nM in experiment [4]; 4600 nM in experiment [5]. For the same molecule, the IC50 in experiment [6] was 480 nM; in experiment [7], 390 nM.

Regarding `Cc1c(Cn2c(CN3CCS(=O)(=O)CC3)nc3cnc(N4CCOCC4)cc32)cccc1C(F)(F)F` [Compound 8], the dissociation constant (Kd) in experiment [1] is 11000 nM; in experiment [2] it was 11 nM; in experiment [3], 2600 nM; in experiment [4] it was more than 30200 nM; in experiment [5] it was more than 30200 nM. The IC50 in experiment [7] is 290 nM.

`Cc1nc2cnc(N3CCOCC3)cc2n1Cc1cccc2c1CNCC2` [Compound 9]: the Kd in experiment [1] was more than 30200 nM; in experiment [2] it was 79 nM; in experiment [3], 5100 nM; in experiment [4], more than 30200 nM; in experiment [5], more than 30200 nM. Further, the values for the IC50 in experiment [6] and in experiment [7] were approximately 480 nM and approximately 460 nM, respectively.

Take `Cc1nc2cnc(N3CCOCC3)cc2n1Cc1cccc2c1CN(C)CC2` [Compound 10]: the dissociation constant (Kd) was 26900 nM in experiment [1]; 100 nM in experiment [2]; 4200 nM in experiment [3]; more than 30200 nM in experiment [4]; more than 30200 nM in experiment [5]. Further, the IC50 in experiment [6] and in experiment [7] was more than 510 nM throughout.

For the molecule `Cc1nc2cnc(N3CCOCC3)cc2n1Cc1cccc2c1CN(CCO)CC2` [Compound 11], the dissociation constant Kd in experiment [1] is 8700 nM; in experiment [2], 27 nM; in experiment [3] it was 1300 nM; in experiment [4], 32400 nM; in experiment [5], more than 30200 nM. Further, the IC50 in experiment [6] and in experiment [7] was more than 510 nM in each case.

With `Cc1cccc(Cn2c(C)nc3c(N)nc(C4=CCOCC4)cc32)c1C` [Compound 12], the Kd in experiment [1] was 13200 nM; in experiment [2], 3 nM; in experiment [3], 700 nM; in experiment [4], more than 30200 nM; in experiment [5] it was more than 30200 nM. The IC50 was found to be 310 nM in experiment [6] and 110 nM in experiment [7].

For the molecule `Cc1c(Cn2c(C)nc3cnc(C4=CCOCC4)cc32)cccc1C(F)(F)F` [Compound 13], the Kd in experiment [1] was 5900 nM; in experiment [2], 3 nM; in experiment [3], 1300 nM; in experiment [4], 17000 nM; in experiment [5], more than 30200 nM. The 50% inhibitory concentration (IC50) in experiment [6] was 170 nM; in experiment [7], 80 nM.

In the case of `Cc1c(F)cccc1Cn1c(C)nc2c(N)nc(C3=CCOCC3)cc21` [Compound 14], the dissociation constant (Kd) is more than 30200 nM in experiment [1]; 11 nM in experiment [2]; 3300 nM in experiment [3]; 21900 nM in experiment [4]; more than 30200 nM in experiment [5]. In addition, the IC50 in experiment [6] came to 320 nM; in experiment [7], 220 nM.

Take `Cc1c(Cn2c(C)nc3c(N)nc(N4CCOCC4)cc32)cccc1C(F)(F)F` [Compound 15]: the equilibrium dissociation constant (Kd) is 18200 nM in experiment [1]; 398 nM in experiment [2]; 6300 nM in experiment [3]; more than 30200 nM in experiment [4]; more than 30200 nM in experiment [5]. Besides, the 50% inhibitory concentration (IC50) in experiment [6] is 120 nM; in experiment [7], 90 nM.

Consider `Cc1c(F)cccc1Cn1c(C)nc2c(N)nc(N3CCOCC3)cc21` [Compound 16], for which the equilibrium dissociation constant (Kd) in experiment [1] is more than 30200 nM; in experiment [2], 132 nM; in experiment [3] it was 5600 nM; in experiment [4] it was more than 30200 nM; in experiment [5] it was more than 30200 nM. For the same molecule, the results for the 50% inhibitory concentration (IC50) in experiment [6] and in experiment [7] were 410 nM and 180 nM, respectively.

With `Cc1cccc(Cn2c(C)nc3c(N)nc(N4CCOCC4)cc32)c1C` [Compound 17], the Kd in experiment [1] is 8300 nM; in experiment [2] it was 19 nM; in experiment [3], 1500 nM; in experiment [4] it was more than 30200 nM; in experiment [5], more than 30200 nM. In addition, the IC50 in experiment [6] was approximately 230 nM; in experiment [7], 190 nM.
